{"source": "patent US10328085B2", "about": "“Cobalt porphyrins for the treatment of blood-related disorders” (UNIWERSYTET JAGIELLONSKI, priority 2014, dated 2019)", "key": {"C3H and C57BL6xFVB mice [1]": {"tested_on": "C3H and C57BL6xFVB mice", "assay": "flow cytometry of peripheral blood granulocytes in mice", "format": "in vivo", "text": "FIG. 3—the percentage of granulocytes in peripheral blood in C3H mice after administration of the test compounds; (test ANOVA+Bonferroni test),\nFIG. 4—the percentage of granulocytes in the peripheral blood of C57BL6xFVB mice after administration of CoPP; (test ANOVA+Bonferroni test),\nCoPP is used in scientific experiments, both in vitro and in vivo as heme oxygenase-1 inducer. […] In some of the experiments tin protoporphyrin IX (SnPP), which is an inhibitor of the enzymatic activity of HO-1, was also used.\n(§1) CoPP was administered to mice intraperitoneally at a dose of 10 mg/kg of body weight, three times at intervals of two days. Control mice received only the solvent (DMSO). In one experiment tin protoporphyrin (SnPP) was also used.\nThe day after the last administration of CoPP the mice were sacrificed and samples were collected for analysis. Complete blood counts were obtained using a hematology analyzer. In addition, the phenotype and the quantity of leukocytes in the peripheral blood, bone marrow and spleen was analyzed in more detail using a flow cytometer. Moreover, concentrations of 32 cytokines and growth factors in plasma were analyzed. The results of analyzes indicate that mice that were treated with CoPP had increased number of white blood cells (WBC) in the blood compared to mice that received only DMSO (3-fold in C3H mice, 2-fold in C57BL6xFVB mice). […]"}, "C57BL6xFVB mice": {"tested_on": "C57BL6xFVB mice", "assay": "HSPC mobilization to blood, CoPP compared with G-CSF", "format": "in vivo", "settings": "CoPP 10 mg/kg (15 μmol/kg) vs rhG-CSF 250 μg/kg, i.p. daily for five days", "protocol": "FIG. 8—HSPC numbers in the blood of C57BL6xFVB mice treated with G-CSF and CoPP.\nEffects of CoPP and exogenous G-CSF were compared. Mice were iterated with CoPP at the dose of 10 mg/kg (15 μmol/kg). Recombinant human G-CSF (rhG-CSF, Amgen) was used at the dose of 250 μg/kg. Compounds were injected i.p. daily for five days. Administration od CoPP mobilized higher number of HSPC (hematopoietic stem/progenitor cells) than administration of exogenous G-CSF (FIG. 8)."}, "solubility": {"assay": "solubility", "format": "physicochemical", "settings": "alkaline aqueous solutions", "text": "Cobalt porphyrins can be prepared by known methods. For example, cobalt protoporphyrin IX can be prepared using methods as described in: “Porphyrins and Metalloporphyrins” Ed. by K. M. Smith, Elsevier Scientific Pub. Co (1975) ISBN 0-444-41375-8 oraz Kenner, G. W., et al., Liebigs Ann. Chem. 1973, 1329-1338 and Burns, D. H., et al., J. Chem. Soc., Perkin Trans. 1, 1988, 3119. […] In the production process and the preparation of a medical agent cobalt protoporphyrin is proposed to be dissolved in an alkaline solution (eg. 0.2 M Na3PO4.12H20; ˜0.2 ml/ml final volume) and then with sterile water (˜0.7 ml/ml final volume), pH adjusted to 7.5-7.8 (eg. 0.3N HCl)."}, "[2]": {"assay": "singlet oxygen generation by flash photolysis", "format": "physicochemical", "settings": "laser light at 355 nm", "protocol": "FIG. 7—singlet oxygen generation quantum yield (ΦΔ) for CoPP and SnPP in reference to phenalenone, measured by flash photolysis.\nBecause of the fact that potential described side effects of administration of porphyrins are associated with photosensitization, causing the formation of toxic reactive oxygen species, it was evaluated if CoPP is a photosensitizer and thus may cause side effects. To this end, the ability to generate reactive oxygen species by CoPP was verified by flash photolysis. […] In contrast, in experiment with another porphyrin (SnPP) 89% of absorbed energy was used for generation of singlet oxygen (FIG. 7). It is therefore unlikely that CoPP will cause photosensitization, what often limits the clinical application of other compounds from the group of porphyrins."}, "C3H and C57BL6xFVB mice [3]": {"tested_on": "C3H and C57BL6xFVB mice", "assay": "complete blood counts (hematology analyzer) in mice after CoPP", "format": "in vivo", "settings": "for increase in number of granulocytes / increase in number of white blood cells (WBC) in blood compared to DMSO: three times at intervals of two days", "text": "The possibility of using CoPP for cell mobilization has been confirmed in experiments conducted on two different strains of mice: C3H (5 mice per group) and C57BL6xFVB (5-6 mice per group). The figures show:\nFIG. 1—peripheral blood cell counts in C3H mice after administration of the test compounds (HCT—hematocrit, RBC—erythrocytes, WBC—leukocytes, LYM—lymphocytes, MON—monocytes, GRA—granulocytes, #—number of cells per mm^3, %—percentage of the population among all leukocytes; (ANOVA+Bonferroni test)\nFIG. 2—peripheral blood cell counts in C57BL6xFVB strain after administration of CoPP; (test ANOVA+Bonferroni test)\nas §1\n(§2) The day after the last administration of CoPP the mice were sacrificed and samples were collected for analysis. Complete blood counts were obtained using a hematology analyzer. In addition, the phenotype and the quantity of leukocytes in the peripheral blood, bone marrow and spleen was analyzed in more detail using a flow cytometer. Moreover, concentrations of 32 cytokines and growth factors in plasma were analyzed. The results of analyzes indicate that mice that were treated with CoPP had increased number of white blood cells (WBC) in the blood compared to mice that received only DMSO (3-fold in C3H mice, 2-fold in C57BL6xFVB mice). In both strains, there was a significant increase in the number of granulocytes (6.7-fold in C3H mice, 4-fold in C57BL6xFVB mice). There were no changes in the parameters such as hematocrit (HCT) and the number of erythrocytes (RBC) (FIG. 1, FIG. 2)"}, "[4]": {"tested_on": "cytokines and growth factors in plasma", "assay": "cytokines and growth factors in plasma (Luminex)", "format": "in vivo, mice", "protocol": "FIG. 5—concentration of cytokines and growth factors in plasma of C3H mice after administration of test compounds; (test ANOVA+Bonferroni test),\nFIG. 6—concentration of cytokines and growth factors in plasma of C57BL6xFVB mice after administration of CoPP; (test ANOVA+Bonferroni test),\nas §1, §2\nIn order to investigate the mechanism responsible for the increase of the leukocytes (especially granulocytes) number, after administration of CoPP, the concentrations of cytokines and growth factors in the plasma were measured using the Luminex system. An increase in levels of granulocyte colony stimulating factor (G-CSF), chemokines MCP-1 (CCL2) and IP-10 (CXCL-10) and interleukin 6 was observed (FIG. 5, FIG. 6)."}, "[5]": {"settings": "both strains, 10 mg/kg i.p., three times"}}, "data": [{"smiles": "C=Cc1c(C)c2cc3[nH]c(cc4nc(cc5nc(cc1[nH]2)C(C)=C5CCC(=O)[O-])C(CCC(=O)[O-])=C4C)c(C)c3C=C.[Co+2]", "note": "[CoPP, cobalt protoporphyrin IX]", "values": [{"measurement": "mobilization of cells from bone marrow in HO-1 KO mice", "setting": "C3H and C57BL6xFVB mice [1]; HO-1 KO versus wild type mice, FIG. 4", "value": "works in a similar manner as in wild type mice"}, {"measurement": "number of immature granulocytes (CD11b+/Ly6G low/Ly6C-/SCC mid phenotype)", "setting": "C3H and C57BL6xFVB mice [1]; peripheral blood, flow cytometer", "value": "increase"}, {"measurement": "number of HSPC mobilized compared with exogenous G-CSF", "setting": "C57BL6xFVB mice", "value": "higher number"}, {"measurement": "solubility", "setting": "solubility", "value": "soluble in alkaline aqueous solutions"}, {"measurement": "generation of singlet oxygen upon absorption of laser light", "setting": "[2]", "value": "does not generate singlet oxygen"}, {"measurement": "increase in number of granulocytes", "setting": "C3H and C57BL6xFVB mice [3]; C3H mice, 10 mg/kg i.p.", "value": 6.7, "unit": "fold"}, {"measurement": "increase in number of white blood cells (WBC) in blood compared to DMSO", "setting": "C3H and C57BL6xFVB mice [3]; C3H mice, 10 mg/kg i.p.", "value": 3, "unit": "fold"}, {"measurement": "increase in number of granulocytes", "setting": "C3H and C57BL6xFVB mice [3]; C57BL6xFVB mice, 10 mg/kg i.p.", "value": 4, "unit": "fold"}, {"measurement": "increase in number of white blood cells (WBC) in blood compared to DMSO", "setting": "C3H and C57BL6xFVB mice [3]; C57BL6xFVB mice, 10 mg/kg i.p.", "value": 2, "unit": "fold"}, {"measurement": "hematocrit (HCT)", "setting": "C3H and C57BL6xFVB mice [3]; [5]", "value": "no changes"}, {"measurement": "number of erythrocytes (RBC)", "setting": "C3H and C57BL6xFVB mice [3]; [5]", "value": "no changes"}, {"measurement": "plasma level of chemokine IP-10 (CXCL-10)", "setting": "[4]", "value": "increase"}, {"measurement": "plasma level of chemokine MCP-1 (CCL2)", "setting": "[4]", "value": "increase"}, {"measurement": "plasma level of granulocyte colony stimulating factor (G-CSF)", "setting": "[4]", "value": "increase"}, {"measurement": "plasma level of interleukin 6", "setting": "[4]", "value": "increase"}]}, {"smiles": "C=Cc1c2[n-]c(c1C)/C=c1\\[n-]/c(c(C)c1C=C)=C\\c1[n-]c(c(CCC(=O)O)c1C)C=c1[n-]/c(c(C)c1CCC(=O)O)=C\\2.[Sn+4]", "note": "[SnPP, tin protoporphyrin IX, reference compound]", "values": [{"measurement": "absorbed energy used for generation of singlet oxygen", "setting": "[2]", "value": 89, "unit": "%"}, {"measurement": "effect on the measured parameters (blood counts, granulocytes, cytokines)", "setting": "C3H and C57BL6xFVB mice [3]; C3H mice, FIG. 1,3,5", "value": "did not affect the majority of the measured parameters"}]}]}
